Consider 1 compound from US20110009482A1, “METHODS OF TREATING COPD” (Schering Corporation, priority 2007, published 2011).

The data set is described as follows: Pharmacokinetics after oral administration to a human. Particulars: in vivo.
Where [1] appears, read: single-dose oral administration of 30 mg to a human.

Regarding `CC[C@@H](Nc1c(Nc2cccc(C(=O)N(C)C)c2O)c(=O)c1=O)c1ccc(C)o1` [formula (1.0A)], the Tmax (oral administration to a human, read-out: median Tmax) was in the range of 0.5 to 2 h. Under setting [1], this compound yielded an AUC of 484 to 489 ng·h/mL and a Cmax of 122 to 147 ng/mL.

The term Tmax denotes the time at which the peak concentration occurs. In general, AUC refers to the area under the concentration-time curve, a measure of exposure. Read a low AUC as less exposure. What is called Cmax is the highest concentration seen after dosing.
